Experimental data as given in PubChem BioAssay AID1963972 (Molecular Pharmacology Branch, DTP, NCI, 2024).

Tested on: 945468-187-T-J2-PDC spheroids viability
Assay: Anticancer human tumor 945468-187-T-J2-PDC patient-derived rectal carcinoma cell line growth inhibition [PI3K]
Settings: spheroids with HUVEC and MSC; for IC50: curve of first compound; for viability, T/C: stronger effect = lower value
Method in brief: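 Targeted small molecules plus PI3K inhibitors, half-log dose series from Cmax (default top 10 microM), were applied to heterotypic spheroids of cancer cells with HUVEC and MSCs. Viability indicated growth inhibition.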

[1] = second compound 0.0316 µM, first compound 0.000316 µM
[2] = second compound 0.0316 µM, first compound 0.001 µM
[3] = second compound 0.0316 µM, first compound 0.00316 µM
[4] = second compound 0.0316 µM, first compound 0.01 µM
[5] = second compound 0.0316 µM, first compound 0.0316 µM
[6] = second compound 0.0316 µM, first compound 0.1 µM
[7] = second compound 0.1 µM, first compound 0.000316 µM
[8] = second compound 0.1 µM, first compound 0.001 µM
[9] = second compound 0.1 µM, first compound 0.00316 µM
[10] = second compound 0.1 µM, first compound 0.01 µM
[11] = second compound 0.1 µM, first compound 0.0316 µM
[12] = second compound 0.1 µM, first compound 0.1 µM
[13] = second compound 0.316 µM, first compound 0.000316 µM
[14] = second compound 0.316 µM, first compound 0.001 µM
[15] = second compound 0.316 µM, first compound 0.00316 µM
[16] = second compound 0.316 µM, first compound 0.01 µM
[17] = second compound 0.316 µM, first compound 0.0316 µM
[18] = second compound 0.316 µM, first compound 0.1 µM
[19] = second compound 1 µM, first compound 0.000316 µM
[20] = second compound 1 µM, first compound 0.001 µM
[21] = second compound 1 µM, first compound 0.00316 µM
[22] = second compound 1 µM, first compound 0.01 µM
[23] = second compound 1 µM, first compound 0.0316 µM
[24] = second compound 1 µM, first compound 0.1 µM
[25] = second compound 3.16 µM, first compound 0.000316 µM
[26] = second compound 3.16 µM, first compound 0.001 µM
[27] = second compound 3.16 µM, first compound 0.00316 µM
[28] = second compound 3.16 µM, first compound 0.01 µM
[29] = second compound 3.16 µM, first compound 0.0316 µM
[30] = second compound 3.16 µM, first compound 0.1 µM
[31] = second compound 10 µM, first compound 0.000316 µM
[32] = second compound 10 µM, first compound 0.001 µM
[33] = second compound 10 µM, first compound 0.00316 µM
[34] = second compound 10 µM, first compound 0.01 µM
[35] = second compound 10 µM, first compound 0.0316 µM
[36] = second compound 10 µM, first compound 0.1 µM
[37] = second compound 0.0316 µM, first compound 0.316 µM
[38] = second compound 0.0316 µM, first compound 1 µM
[39] = second compound 0.0316 µM, first compound 3.16 µM
[40] = second compound 0.0316 µM, first compound 10 µM
[41] = second compound 0.1 µM, first compound 0.316 µM
[42] = second compound 0.1 µM, first compound 1 µM
[43] = second compound 0.1 µM, first compound 3.16 µM
[44] = second compound 0.1 µM, first compound 10 µM
[45] = second compound 0.316 µM, first compound 0.316 µM
[46] = second compound 0.316 µM, first compound 1 µM
[47] = second compound 0.316 µM, first compound 3.16 µM
[48] = second compound 0.316 µM, first compound 10 µM
[49] = second compound 1 µM, first compound 0.316 µM
[50] = second compound 1 µM, first compound 1 µM
[51] = second compound 1 µM, first compound 3.16 µM
[52] = second compound 1 µM, first compound 10 µM
[53] = second compound 3.16 µM, first compound 0.316 µM
[54] = second compound 3.16 µM, first compound 1 µM
[55] = second compound 3.16 µM, first compound 3.16 µM
[56] = second compound 3.16 µM, first compound 10 µM
[57] = second compound 10 µM, first compound 0.316 µM
[58] = second compound 10 µM, first compound 1 µM
[59] = second compound 10 µM, first compound 3.16 µM
[60] = second compound 10 µM, first compound 10 µM
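Also: spheroids exposed to compounds for seven days before reading.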

CC(=O)c1c(C)c2cnc(Nc3ccc(N4CCNCC4)cn3)nc2n(C2CCCC2)c1=O + CC(Nc1ncnc2nc[nH]c12)c1cc2cccc(Cl)c2c(=O)n1-c1ccccc1
IC50 (second compound 0.0316 µM): > 0.1 µM
IC50 (second compound 0.1 µM): > 0.1 µM
IC50 (second compound 0.316 µM): > 0.1 µM
IC50 (second compound 1 µM): > 0.1 µM
IC50 (second compound 3.16 µM): > 0.1 µM
IC50 (second compound 10 µM): > 0.1 µM
viability, T/C [1]: 104%
viability, T/C [2]: 80%
viability, T/C [3]: 101%
viability, T/C [4]: 100%
viability, T/C [5]: 90%
viability, T/C [6]: 122%
viability, T/C [7]: 98.9%
viability, T/C [8]: 101%
viability, T/C [9]: 89.4%
viability, T/C [10]: 80.3%
viability, T/C [11]: 104%
viability, T/C [12]: 101%
viability, T/C [13]: 82.3%
viability, T/C [14]: 108%
viability, T/C [15]: 103%
viability, T/C [16]: 98.4%
viability, T/C [17]: 113%
viability, T/C [18]: 88.7%
viability, T/C [19]: 91.2%
viability, T/C [20]: 103%
viability, T/C [21]: 85.4%
viability, T/C [22]: 89.8%
viability, T/C [23]: 90.7%
viability, T/C [24]: 109%
viability, T/C [25]: 87.8%
viability, T/C [26]: 87%
viability, T/C [27]: 102%
viability, T/C [28]: 99.5%
viability, T/C [29]: 111%
viability, T/C [30]: 118%
viability, T/C [31]: 101%
viability, T/C [32]: 100%
viability, T/C [33]: 101%
viability, T/C [34]: 87.9%
viability, T/C [35]: 99.5%
viability, T/C [36]: 121%

CC(C)n1nc(-c2ccc3oc(N)nc3c2)c2c(N)ncnc21 + CC(Nc1ncnc2nc[nH]c12)c1cc2cccc(Cl)c2c(=O)n1-c1ccccc1
IC50 (second compound 0.0316 µM): > 0.1 µM
IC50 (second compound 0.1 µM): > 0.1 µM
IC50 (second compound 0.316 µM): > 0.1 µM
IC50 (second compound 1 µM): > 0.1 µM
IC50 (second compound 3.16 µM): > 0.1 µM
IC50 (second compound 10 µM): > 0.1 µM
viability, T/C [1]: 93.8%
viability, T/C [2]: 87.3%
viability, T/C [3]: 96.4%
viability, T/C [4]: 107%
viability, T/C [5]: 117%
viability, T/C [6]: 62.8%
viability, T/C [7]: 96.2%
viability, T/C [8]: 94.3%
viability, T/C [9]: 99.4%
viability, T/C [10]: 84.2%
viability, T/C [11]: 115%
viability, T/C [12]: 73.5%
viability, T/C [13]: 97.1%
viability, T/C [14]: 89%
viability, T/C [15]: 94.7%
viability, T/C [16]: 134%
viability, T/C [17]: 96.1%
viability, T/C [18]: 71%
viability, T/C [19]: 87.6%
viability, T/C [20]: 136%
viability, T/C [21]: 95.8%
viability, T/C [22]: 93.2%
viability, T/C [23]: 78.2%
viability, T/C [24]: 55%
viability, T/C [25]: 85.5%
viability, T/C [26]: 107%
viability, T/C [27]: 90.3%
viability, T/C [28]: 106%
viability, T/C [29]: 92.9%
viability, T/C [30]: 62.3%
viability, T/C [31]: 109%
viability, T/C [32]: 84.5%
viability, T/C [33]: 108%
viability, T/C [34]: 88.4%
viability, T/C [35]: 78.2%
viability, T/C [36]: 82.8%

CC1(C)CCC(CN2CCN(c3ccc(C(=O)NS(=O)(=O)c4ccc(NCC5CCOCC5)c([N+](=O)[O-])c4)c(Oc4cnc5[nH]ccc5c4)c3)CC2)=C(c2ccc(Cl)cc2)C1 + CC(Nc1ncnc2nc[nH]c12)c1cc2cccc(Cl)c2c(=O)n1-c1ccccc1
IC50 (second compound 0.0316 µM): > 10 µM
IC50 (second compound 0.1 µM): > 10 µM
IC50 (second compound 0.316 µM): > 10 µM
IC50 (second compound 1 µM): > 10 µM
IC50 (second compound 3.16 µM): > 10 µM
IC50 (second compound 10 µM): > 10 µM
viability, T/C [5]: 91.7%
viability, T/C [6]: 92.2%
viability, T/C [37]: 99.8%
viability, T/C [38]: 98.2%
viability, T/C [39]: 94%
viability, T/C [40]: 81%
viability, T/C [11]: 82.3%
viability, T/C [12]: 75.7%
viability, T/C [41]: 84.5%
viability, T/C [42]: 78.6%
viability, T/C [43]: 96.5%
viability, T/C [44]: 79.1%
viability, T/C [17]: 97.1%
viability, T/C [18]: 93.4%
viability, T/C [45]: 93.2%
viability, T/C [46]: 100%
viability, T/C [47]: 119%
viability, T/C [48]: 80.5%
viability, T/C [23]: 97.4%
viability, T/C [24]: 87.8%
viability, T/C [49]: 103%
viability, T/C [50]: 92.9%
viability, T/C [51]: 107%
viability, T/C [52]: 63.2%
viability, T/C [29]: 96%
viability, T/C [30]: 115%
viability, T/C [53]: 84.8%
viability, T/C [54]: 134%
viability, T/C [55]: 102%
viability, T/C [56]: 86.6%
viability, T/C [35]: 94.5%
viability, T/C [36]: 81.5%
viability, T/C [57]: 104%
viability, T/C [58]: 124%
viability, T/C [59]: 97.7%
viability, T/C [60]: 84.8%

CCCS(=O)(=O)Nc1ccc(F)c(C(=O)c2c[nH]c3ncc(-c4ccc(Cl)cc4)cc23)c1F + CC(Nc1ncnc2nc[nH]c12)c1cc2cccc(Cl)c2c(=O)n1-c1ccccc1
IC50 (second compound 0.0316 µM): 4.52 µM
IC50 (second compound 0.1 µM): 5.03 µM
IC50 (second compound 0.316 µM): 5.4 µM
IC50 (second compound 1 µM): 5.82 µM
IC50 (second compound 3.16 µM): 5.92 µM
IC50 (second compound 10 µM): 5.63 µM
viability, T/C [5]: 105%
viability, T/C [6]: 103%
viability, T/C [37]: 104%
viability, T/C [38]: 89.2%
viability, T/C [39]: 73.4%
viability, T/C [40]: 2.78%
viability, T/C [11]: 132%
viability, T/C [12]: 83.2%
viability, T/C [41]: 89%
viability, T/C [42]: 93.8%
viability, T/C [43]: 83.8%
viability, T/C [44]: 4.23%
viability, T/C [17]: 107%
viability, T/C [18]: 110%
viability, T/C [45]: 85.2%
viability, T/C [46]: 107%
viability, T/C [47]: 89.6%
viability, T/C [48]: 4.32%
viability, T/C [23]: 104%
viability, T/C [24]: 99.2%
viability, T/C [49]: 93%
viability, T/C [50]: 99.6%
viability, T/C [51]: 108%
viability, T/C [52]: 4.79%
viability, T/C [29]: 98.6%
viability, T/C [30]: 106%
viability, T/C [53]: 100%
viability, T/C [54]: 98.8%
viability, T/C [55]: 113%
viability, T/C [56]: 5.45%
viability, T/C [35]: 98.2%
viability, T/C [36]: 93.9%
viability, T/C [57]: 101%
viability, T/C [58]: 95.6%
viability, T/C [59]: 93.5%
viability, T/C [60]: 6.8%
